Assay results reported in patent US8163793B2, “Proline derivatives” (Hoffman-La Roche Inc., priority 2009, dated 2012).
Structures can show the parent of a compound that is named as a salt.

Columns and labels:
Cathepsin S = Cathepsin S (UniProt P25774); experiment: Cathepsin enzyme inhibition assay (fluorogenic peptide substrate Z-Val-Val-Arg-AMC), Cathepsin S; format: biochemical, human and mouse; conditions: enzyme 1 nM, substrate 20 μM, pH 6.5; read-out: CatS IC50
Outline: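 Human or mouse cathepsin S (1 nM) was run in 100 mM potassium phosphate pH 6.5 with 5 mM EDTA, 0.001% Triton X-100 and 5 mM DTT. The rise in AMC fluorescence from cleavage was measured, and IC50 values were calculated by standard methods and expressed in μM.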

Cat L = Cat L (UniProt P07711); experiment: Cathepsin enzyme inhibition assay (fluorogenic peptide substrate Z-Val-Val-Arg-AMC), Cathepsin L; format: biochemical, human and mouse; conditions: enzyme 1 nM, substrate 20 μM, pH 6.5; read-out: CatL IC50
Outline: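 Cathepsin L at 1 nM was mixed with compound, then started with 20 μM Z-Val-Val-Arg-AMC in pH 6.5 potassium phosphate with EDTA, Triton X-100 and 5 mM DTT. AMC fluorescence (ex 360/em 465 nm) was followed over 20 min. IC50 is given in μM.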

With `Cc1cc(Cl)ccc1S(=O)(=O)[C@H]1CN[C@H](C(=O)NC2(C#N)CC2)C1` [Example 50, (2S,4R)-4-(4-Chloro-2-methyl-benzenesulfonyl)-pyrrolidine-2-carboxylic acid (1-cyano-cyclopropyl)-amide Hydrochloride] as the compound, how does the IC50 (Cathepsin S) read?
The IC50 was 4.4 nM.

What about the IC50 (Cat L) of the same compound?
Its IC50 is 8.77 µM.

For `N#CC1(NC(=O)[C@@H]2C[C@@H](S(=O)(=O)c3cccc(Cl)c3Cl)CN2)CC1` [Example 51, (2S,4R)-4-(2,3-Dichloro-benzenesulfonyl)-pyrrolidine-2-carboxylic acid (1-cyano-cyclopropyl)-amide Hydrochloride], which IC50 (Cathepsin S) is on record?
The IC50 was 26 nM.

And the IC50 (Cat L)?
Its IC50 is ≥ 25 µM.

`N#CCNC(=O)[C@@H]1C[C@@H](S(=O)(=O)c2ccccc2)CN1C(=O)c1ccccc1` [Example 52, (2S,4R)-4-Benzenesulfonyl-1-benzoyl-pyrrolidine-2-carboxylic acid cyanomethyl-amide] was tested. Which IC50 (Cathepsin S) did it give?
Its IC50 is 14 nM.

What about the IC50 (Cat L) of the same compound?
Its IC50 is ≥ 25 µM.

What does the source list for `N#CCNC(=O)[C@@H]1C[C@@H](S(=O)(=O)c2ccccc2)CN1C(=O)C1CCCCC1` [Example 53, (2S,4R)-4-Benzenesulfonyl-1-cyclohexanecarbonyl-pyrrolidine-2-carboxylic acid cyanomethyl-amide]?
IC50 (Cathepsin S): 5.2 nM; IC50 (Cat L): ≥ 25 µM

`N#CCNC(=O)[C@@H]1C[C@@H](S(=O)(=O)c2ccccc2)CN1Cc1ccccc1` [Example 54, (2S,4R)-4-Benzenesulfonyl-1-benzyl-pyrrolidine-2-carboxylic acid cyanomethyl-amide] was tested. Which IC50 (Cathepsin S) did it give?
Its IC50 is 210 nM.

And the IC50 (Cat L)?
The IC50 was 5.34 µM.

Which results are given for `N#CCNC(=O)[C@@H]1C[C@@H](S(=O)(=O)c2ccccc2)CN1CC1CCCCC1` [Example 55, (2S,4R)-4-Benzenesulfonyl-1-cyclohexylmethyl-pyrrolidine-2-carboxylic acid cyanomethyl-amide]?
IC50 (Cathepsin S): 14.8 nM; IC50 (Cat L): ≥ 25 µM

`N#CCNC(=O)[C@@H]1C[C@@H](S(=O)(=O)c2ccccc2)CN1C(c1ccccc1)C(F)(F)F` (stereo partly drawn) [Example 56, (2S,4R)-4-Benzenesulfonyl-1-(2,2,2-trifluoro-1-phenyl-ethyl)-pyrrolidine-2-carboxylic acid cyanomethyl-amide] was tested. Which IC50 (Cathepsin S) did it give?
The IC50 was 42.7 nM.

What about the IC50 (Cat L) of the same compound?
The IC50 was ≥ 25 µM.

How did the IC50 (Cathepsin S) turn out when `N#CCNC(=O)[C@@H]1C[C@@H](S(=O)(=O)c2ccccc2Cl)CN1C(c1ccccc1)C(F)(F)F` (stereo partly drawn) [Example 57, (2S,4R)-4-(2-Chloro-benzenesulfonyl)-1-(2,2,2-trifluoro-1-phenyl-ethyl)-pyrrolidine-2-carboxylic acid cyanomethyl-amide] was run?
Its IC50 is 14.3 nM.

And the IC50 (Cat L)?
Its IC50 is 17 µM.

Which IC50 (Cathepsin S) does the source give for `N#CCNC(=O)[C@@H]1C[C@@H](S(=O)(=O)c2ccccc2Cl)CN1C(=O)c1ccccc1` [Example 58, (2S,4R)-1-Benzoyl-4-(2-chloro-benzenesulfonyl)-pyrrolidine-2-carboxylic acid cyanomethyl-amide] here?
The IC50 was 1.6 nM.

And the IC50 (Cat L)?
Its IC50 is 27.4 µM.

Which results are given for `N#CCNC(=O)[C@@H]1C[C@@H](S(=O)(=O)c2ccccc2Cl)CN1C(=O)c1ccc(F)cc1` [Example 59, (2S,4R)-4-(2-Chloro-benzenesulfonyl)-1-(4-fluoro-benzoyl)-pyrrolidine-2-carboxylic acid cyanomethyl-amide]?
IC50 (Cathepsin S): 1.8 nM; IC50 (Cat L): 12.2 µM

`N#CCNC(=O)[C@@H]1C[C@@H](S(=O)(=O)c2ccccc2Cl)CN1C(=O)C1CCCCC1` [Example 60, (2S,4R)-4-(2-Chloro-benzenesulfonyl)-1-cyclohexanecarbonyl-pyrrolidine-2-carboxylic acid cyanomethyl-amide] was tested. Which IC50 (Cathepsin S) did it give?
The IC50 was 0.5 nM.

And the IC50 (Cat L)?
Its IC50 is 12.8 µM.

`CCC(=O)N1C[C@H](S(=O)(=O)c2ccccc2Cl)C[C@H]1C(=O)NCC#N` [Example 61, (2S,4R)-4-(2-Chloro-benzenesulfonyl)-1-propionyl-pyrrolidine-2-carboxylic acid cyanomethyl-amide] was tested. Which IC50 (Cathepsin S) did it give?
Its IC50 is 1.2 nM.

And the IC50 (Cat L)?
The IC50 was 22.5 µM.

How did the IC50 (Cathepsin S) turn out when `COCC(=O)N1C[C@H](S(=O)(=O)c2ccccc2Cl)C[C@H]1C(=O)NCC#N` [Example 62, (2S,4R)-4-(2-Chloro-benzenesulfonyl)-1-(2-methoxy-acetyl)-pyrrolidine-2-carboxylic acid cyanomethyl-amide] was run?
Its IC50 is 1.2 nM.

What about the IC50 (Cat L) of the same compound?
The IC50 was 21 µM.

What does the source list for `N#CCNC(=O)[C@@H]1C[C@@H](S(=O)(=O)c2ccccc2Cl)CN1C1COC1` [Example 63, (2S,4R)-4-(2-Chloro-benzenesulfonyl)-1-oxetan-3-yl-pyrrolidine-2-carboxylic acid cyanomethyl-amide]?
IC50 (Cathepsin S): 100 nM; IC50 (Cat L): ≥ 25 µM

With `N#CCNC(=O)[C@@H]1C[C@@H](S(=O)(=O)c2ccccc2Cl)CN1C1CCOCC1` [Example 64, (2S,4R)-4-(2-Chloro-benzenesulfonyl)-1-(tetrahydro-pyran-4-yl)-pyrrolidine-2-carboxylic acid cyanomethyl-amide] as the compound, how does the IC50 (Cathepsin S) read?
Its IC50 is 109 nM.

And the IC50 (Cat L)?
The IC50 was ≥ 25 µM.

For `N#CCNC(=O)[C@@H]1C[C@@H](S(=O)(=O)c2ccccc2C(F)(F)F)CN1C(=O)c1ccc(F)cc1` [Example 65, (2S,4R)-1-(4-Fluoro-benzoyl)-4-(2-trifluoromethyl-benzenesulfonyl)-pyrrolidine-2-carboxylic acid cyanomethyl-amide], which IC50 (Cathepsin S) is on record?
Its IC50 is 0.6 nM.

And the IC50 (Cat L)?
Its IC50 is ≥ 25 µM.

Which IC50 (Cathepsin S) does the source give for `Cc1ccc(C(=O)N2C[C@H](S(=O)(=O)c3ccccc3C(F)(F)F)C[C@H]2C(=O)NCC#N)cc1` [Example 66, (2S,4R)-1-(4-Methyl-benzoyl)-4-(2-trifluoromethyl-benzenesulfonyl)-pyrrolidine-2-carboxylic acid cyanomethyl-amide] here?
The IC50 was 0.6 nM.

What about the IC50 (Cat L) of the same compound?
The IC50 was ≥ 25 µM.

Which IC50 (Cathepsin S) does the source give for `N#CCNC(=O)[C@@H]1C[C@@H](S(=O)(=O)c2ccccc2C(F)(F)F)CN1C(=O)C1CCCCC1` [Example 67, (2S,4R)-1-Cyclohexanecarbonyl-4-(2-trifluoromethyl-benzenesulfonyl)-pyrrolidine-2-carboxylic acid cyanomethyl-amide] here?
Its IC50 is 0.2 nM.

And the IC50 (Cat L)?
Its IC50 is ≥ 25 µM.

Which IC50 (Cathepsin S) does the source give for `N#CCNC(=O)[C@@H]1C[C@@H](S(=O)(=O)c2ccccc2C(F)(F)F)CN1C(=O)C1CCOCC1` [Example 68, (2S,4R)-1-(Tetrahydro-pyran-4-carbonyl)-4-(2-trifluoromethyl-benzenesulfonyl)-pyrrolidine-2-carboxylic acid cyanomethyl-amide] here?
The IC50 was 0.3 nM.

What about the IC50 (Cat L) of the same compound?
Its IC50 is ≥ 25 µM.

Which results are given for `N#CCNC(=O)[C@@H]1C[C@@H](S(=O)(=O)c2ccccc2C(F)(F)F)CN1C(=O)c1ccncc1` [Example 69, (2S,4R)-1-(Pyridine-4-carbonyl)-4-(2-trifluoromethyl-benzenesulfonyl)-pyrrolidine-2-carboxylic acid cyanomethyl-amide]?
IC50 (Cathepsin S): 0.4 nM; IC50 (Cat L): ≥ 25 µM

What does the source list for `CN1CCC(C(=O)N2C[C@H](S(=O)(=O)c3ccccc3C(F)(F)F)C[C@H]2C(=O)NCC#N)CC1` [Example 70, (2S,4R)-1-(1-Methyl-piperidine-4-carbonyl)-4-(2-trifluoromethyl-benzenesulfonyl)-pyrrolidine-2-carboxylic acid cyanomethyl-amide formiate]?
IC50 (Cathepsin S): 1.6 nM; IC50 (Cat L): 25.2 µM

With `N#CCNC(=O)[C@@H]1C[C@@H](S(=O)(=O)c2ccccc2C(F)(F)F)CN1C(=O)c1ccccc1` [Example 71, (2S,4R)-1-Benzoyl-4-(2-trifluoromethyl-benzenesulfonyl)-pyrrolidine-2-carboxylic acid cyanomethyl-amide] as the compound, how does the IC50 (Cathepsin S) read?
Its IC50 is 0.5 nM.

And the IC50 (Cat L)?
The IC50 was ≥ 25 µM.
